Results as given in patent publication US20220324815A1, “2-PHENOXY-PYRIMIDINE DERIVATIVES AS HERBICIDAL COMPOUNDS” (SYNGENTA CROP PROTECTION AG, priority 2019, published 2022).

Key:
Assay type in all cases: in vivo
Details in all cases: 250 g/ha unless otherwise stated, evaluated after 13 days, five-point scale
[1] = tested on: Ipomoea hederacea (IPOHE); experiment: Test 1 glasshouse herbicide test, pre-emergence application (Table B2)
Procedure, shortened: (§1)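 Score is % phytotoxicity after 13 days, binned 1 (0–20%) to 5 (81–100%). Compound given at 250 g/ha unless stated, as acetone/water (50:50) spray with 0.5% Tween 20, one day post-sowing (pre-emergence) or after 8 days' growth (post-emergence); glasshouse at 24/16 °C day/night, 14 h light, 65% humidity.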

[2] = tested on: Echinochloa crus-galli (ECHCG); experiment: as above
Procedure, shortened: as §1

Solanum nigrum (SOLNI) [3] = experiment: as above
Procedure, shortened: as §1

[4] = tested on: Amaranthus retoflexus (AMARE); experiment: as above
Procedure, shortened: as §1

Setaria faberi (SETFA) [5] = experiment: as above
Procedure, shortened: as §1

Lolium perenne (LOLPE) [6] = experiment: as above
Procedure, shortened: as §1

[7] = tested on: Ipomoea hederacea (IPOHE); experiment: Test 1 glasshouse herbicide test, post-emergence application (Table B1)
Procedure, shortened: as §1

[8] = tested on: Echinochloa crus-galli (ECHCG); experiment: as above
Procedure, shortened: as §1

Solanum nigrum (SOLNI) [9] = experiment: as above
Procedure, shortened: as §1

[10] = tested on: Amaranthus retoflexus (AMARE); experiment: as above
Procedure, shortened: as §1

Setaria faberi (SETFA) [11] = experiment: as above
Procedure, shortened: as §1

Lolium perenne (LOLPE) [12] = experiment: as above
Procedure, shortened: as §1

SMILES	% phytotoxicity IPOHE, pre-emergence application [1]	% phytotoxicity ECHCG, pre-emergence application [2]	% phytotoxicity SOLNI, pre-emergence application (Solanum nigrum (SOLNI) [3])	% phytotoxicity AMARE, pre-emergence application [4]	% phytotoxicity SETFA, pre-emergence application (Setaria faberi (SETFA) [5])	% phytotoxicity LOLPE, pre-emergence application (Lolium perenne (LOLPE) [6])	% phytotoxicity IPOHE, post-emergence application [7]	% phytotoxicity ECHCG, post-emergence application [8]	% phytotoxicity SOLNI, post-emergence application (Solanum nigrum (SOLNI) [9])	% phytotoxicity AMARE, post-emergence application [10]	% phytotoxicity SETFA, post-emergence application (Setaria faberi (SETFA) [11])	% phytotoxicity LOLPE, post-emergence application (Lolium perenne (LOLPE) [12])
[O-][S+](CCC(F)(F)F)c1ccccc1Oc1ncc(Cl)cn1 (stereo not drawn) [Compound A2]	2 (2=21 to 40%)	5 (5=81 to 100%)	5 (5=81 to 100%)	5 (5=81 to 100%)	5 (5=81 to 100%)	3 (3=41 to 60%)	4 (4=61 to 80%)	4 (4=61 to 80%)	5 (5=81 to 100%)	5 (5=81 to 100%)	4 (4=61 to 80%)	4 (4=61 to 80%)
O=S(=O)(CCC(F)(F)F)c1ccccc1Oc1ncc(Cl)cn1 [Compound A3]	3 (3=41 to 60%)	5 (5=81 to 100%)	4 (4=61 to 80%)	5 (5=81 to 100%)	5 (5=81 to 100%)	4 (4=61 to 80%)	3 (3=41 to 60%)	4 (4=61 to 80%)	5 (5=81 to 100%)	5 (5=81 to 100%)	4 (4=61 to 80%)	4 (4=61 to 80%)
FC(F)(F)CCCSc1ccccc1Oc1ncc(Cl)cn1 [Compound A4, 5-chloro-2-[2-(4,4,4-trifluorobutylsulfanyl)phenoxy] pyrimidine]	3 (3=41 to 60%)	5 (5=81 to 100%)	4 (4=61 to 80%)	5 (5=81 to 100%)	5 (5=81 to 100%)	4 (4=61 to 80%)	4 (4=61 to 80%)	4 (4=61 to 80%)	5 (5=81 to 100%)	5 (5=81 to 100%)	5 (5=81 to 100%)	4 (4=61 to 80%)
[O-][S+](CCCC(F)(F)F)c1ccccc1Oc1ncc(Cl)cn1 (stereo not drawn) [Compound A5]	5 (5=81 to 100%)	5 (5=81 to 100%)	5 (5=81 to 100%)	5 (5=81 to 100%)	5 (5=81 to 100%)	5 (5=81 to 100%)	4 (4=61 to 80%)	5 (5=81 to 100%)	5 (5=81 to 100%)	5 (5=81 to 100%)	5 (5=81 to 100%)	5 (5=81 to 100%)
O=S(=O)(CCCC(F)(F)F)c1ccccc1Oc1ncc(Cl)cn1 [Compound A6]	2 (2=21 to 40%)	4 (4=61 to 80%)	3 (3=41 to 60%)	5 (5=81 to 100%)	5 (5=81 to 100%)	2 (2=21 to 40%)	3 (3=41 to 60%)	3 (3=41 to 60%)	5 (5=81 to 100%)	5 (5=81 to 100%)	4 (4=61 to 80%)	2 (2=21 to 40%)
